The values below come from patent publication US10537567B2, “Kinase inhibitors for treatment of disease” (BioAxone BioSciences, Inc., priority 2017, dated 2020).

Series [1] deals with T1, ROCK1 (Homo sapiens, UniProt Q13464). Put plainly: Direct filter-binding radiometric kinase assay (Eurofins) at Km ATP. The series is classed as biochemical. Also on record: purchased Eurofins Testing (Dundee, Scotland, UK). How it is done: (§1) ROCK1 and ROCK2 IC50 determinations were made using ATP concentrations at the Km ATP of 70 μM and 15 μM for ROCK1 and ROCK2, respectively.
(§2) For the data shown in Table 4, IC50 inhibition curves were performed at the respective Km for ATP for both ROCK1 and ROCK2. Performing these assays at the Km of ATP gives a better representation of the inhibitory activity. Other comparisons where differing kinases are tested at a single ATP concentration can potentially misrepresent the comparative efficacy since enzyme inhibitory activity tested below the Km for ATP of the enzyme, produces a circumstance where the enzyme is actually not constantly bound with ATP and the reaction velocity becomes sub-optimal.

Another series concerns the target ROCK2 (Homo sapiens, UniProt O75116). Described as above. Also on record: purchased Eurofins Testing (Dundee, Scotland, UK). The settings on record: for ROCK1/ROCK2 (fold difference): IC50 at respective Km ATP. The series is classed as biochemical. As for the experimental part:
as §1, §2

The target of series [2] is T1, ROCK1. Put plainly: IC50 determined at 10 μM ATP. Details: purchased Eurofins Testing (Dundee, Scotland, UK). The settings on record: 10 μM ATP (below Km). The class given is biochemical.
A short description of series [3]: Hyperemia / ocular tolerability testing in Dutch-Belted rabbits. The class given is in vivo, Dutch-Belted rabbits (Oryctolagus cuniculus). The text has this:
To test for hyperemia, the rabbit is a standard species used in ocular tolerability studies based upon historical data and FDA requirements. For this study, four (4) Dutch-Belted rabbits (Oryctolagus cuniculus) were manually restrained to facilitate topical dosing followed by ocular examinations, and IOP measurements. Prior to placement on study, each animal underwent an ophthalmic examination (slit-lamp biomicroscopy, indirect ophthalmoscopy). Ocular findings were scored according to a modified McDonald-Shadduck Scoring System. […] Test and control articles were dosed in the morning at approximately the same time every day (˜8 am±2 hours). Animals were observed within their cages once daily throughout the study period. […] Any abnormal observation was reported to the Study Director. Ocular findings were scored according to a modified McDonald-Shadduck Scoring System. The scoring system 0=normal and numbers of 1-4 score mild to severe.
(Table 3). Thus, these ROCK inhibitors have promise for therapeutic use in treating eye pathologies.

Another series has as its target Abl (Homo sapiens, UniProt P00519). Put plainly: Second kinome screen. The series is classed as binding. From the text: In the kinome screen BA-2017 had fewer off-target hits (Table 1) than BA-1049. […] An interesting hit from the kinome screen was on Abl (Table 1), an oncogene that also regulates many cellular activities, including vascular leakage.
Series [4] addresses T2, norepinephrine transporter (NET) (Homo sapiens, UniProt P23975).
T2 construct: purchased DiscoverX
The experiment in a line: Safety screen. The series is classed as biochemical. The settings on record: 10,000 nM API. How it is done: (§3) A 468-target kinome screen and a safety screen were carried out to examine the off-target profiles of different kinase inhibitors (DiscoverX, Freemont, Calif.). The kinome screen is a binding assay where API interference of kinase domain/substrate binding is assessed as percent of control. Less than 10% binding (or >90% binding inhibition) is most biologically relevant and considered as a ‘hit’. BA-2017 only had 7 off-target hits compared to BA-1049 and Netarsudil, which both had 11 hits (Table 1) (Studirvant et al. 2016 Bioorg Med Chem Lett. 26(10):2475-2480). […] Published data for Netarsudil were with 200 times less API. […] The NET activity likely helps to decrease IOP but might increase hyperemia, while the SERT activity might have long-term safety consequences (Costagliola et al. 2004 CNS drugs 18(8): p. 475-484).
(§4) These targets include GPCRs, transporters, ion channels, nuclear receptors, non-kinase enzymes.

Series [5] addresses T3, serotonin transporter (SERT) (Homo sapiens, UniProt P31645).
T3 construct: purchased DiscoverX
Put plainly: Safety screen. The series is classed as biochemical. The settings on record: 10,000 nM API. As for the experimental part: as §3, §4

The subject of series [6] is midbrain dopaminergic neurons. The experiment in a line: MPTP mouse model. The settings on record: 10 or 100 mg/kg per day in drinking water, 14 days. The class given is in vivo, C57BL/6 mice. The text has this:
Previous studies have shown that this compound causes the overactivation of the c-Abl non-receptor tyrosine kinase in these neurons, which then phosphorylates the Parkin E3 ubiquitin ligase leading to its inactivation (Ko et al., Proc. Nat. Acad. Sci. USA; 2010; 107:16691). Additionally, this neurotoxin is also known to cause the activation of Rho kinase (ROCK) in the brain when administered to animals (Rodriguez-Perez et al., Neurobiol. Dis., 2013; 58:209).
Different cohorts of adult C57BL/6 mice (Charles River; Wilmington, Mass.) (8 to 10 per group) receive intraperitoneal injections of either vehicle or 30 mg/kg of MPTP (Sigma; St. Louis, Mo.) dissolved in 0.9% saline for 5 consecutive days. This sub-acute/chronic treatment regimen typically leads to the death of 40 to 50% of midbrain dopaminergic neurons of the substantia nigra within 1 to 2 weeks (Meredith and Rademacher; J Parkinsons Dis.; 2011; 1(1):19).
The cohorts are carried forward for 14 days. On the final 2 days of the treatment paradigm, mouse cohorts are subjected to behavioral testing using the accelerated rotarod on one day or grid-walking test on the other day. At completion of the final behavioral test, animals are deeply anesthetized and then perfused transcardially with 4% paraformaldehyde in phosphate buffer. Brains are removed from the craniums and post-fixed for 1-2 hours. The brains are then immersed in 30% sucrose for cryo-protection. Whole coronal sections (20-25 μm thick) through the midbrain region containing the substantia nigra are obtained for each animal and thaw mounted onto SuperFost Plus slides (Thermo-Fisher). Individual sections are reacted with rabbit anti-tyrosine hydroxylase (TH) antibody (EMD-Millipore) overnight in PBS containing 0.05% Triton X-100 and 10% normal goat serum. After washing in PBS/Triton-X-100 multiple times, sections are reacted with […] goat anti-rabbit secondary antibody. Following another round of washing, the slides are reacted with Vecta Stain Elite ABC kit for DAB-enhanced peroxidase detection (Vector Labs; Burlingame, Calif.). Following peroxidase reaction, the sections are subjected to Nissl staining to label all cell types as a counterstain. The sections are then coverslipped in permanent mounting media.
Sections are examined by visible microscopy and photographic images captured. The number of TH positive neurons are estimated in the series of images by unbiased stereological analysis using Stereo Investigator. Numbers of TH-positive neurons per area of the substantia nigra are determined and statistical analyses performed to compare between, control untreated, MPTP/no treatment, MPTP/inhibitor treatments.

The mark [7] stands for this setting: Day 3, 1% topical once daily, modified McDonald-Shadduck score, 0=normal, 1-4 mild to severe, cells = rabbit 1/2, OD/OS.

T1 sequence (Q13464 whole entry): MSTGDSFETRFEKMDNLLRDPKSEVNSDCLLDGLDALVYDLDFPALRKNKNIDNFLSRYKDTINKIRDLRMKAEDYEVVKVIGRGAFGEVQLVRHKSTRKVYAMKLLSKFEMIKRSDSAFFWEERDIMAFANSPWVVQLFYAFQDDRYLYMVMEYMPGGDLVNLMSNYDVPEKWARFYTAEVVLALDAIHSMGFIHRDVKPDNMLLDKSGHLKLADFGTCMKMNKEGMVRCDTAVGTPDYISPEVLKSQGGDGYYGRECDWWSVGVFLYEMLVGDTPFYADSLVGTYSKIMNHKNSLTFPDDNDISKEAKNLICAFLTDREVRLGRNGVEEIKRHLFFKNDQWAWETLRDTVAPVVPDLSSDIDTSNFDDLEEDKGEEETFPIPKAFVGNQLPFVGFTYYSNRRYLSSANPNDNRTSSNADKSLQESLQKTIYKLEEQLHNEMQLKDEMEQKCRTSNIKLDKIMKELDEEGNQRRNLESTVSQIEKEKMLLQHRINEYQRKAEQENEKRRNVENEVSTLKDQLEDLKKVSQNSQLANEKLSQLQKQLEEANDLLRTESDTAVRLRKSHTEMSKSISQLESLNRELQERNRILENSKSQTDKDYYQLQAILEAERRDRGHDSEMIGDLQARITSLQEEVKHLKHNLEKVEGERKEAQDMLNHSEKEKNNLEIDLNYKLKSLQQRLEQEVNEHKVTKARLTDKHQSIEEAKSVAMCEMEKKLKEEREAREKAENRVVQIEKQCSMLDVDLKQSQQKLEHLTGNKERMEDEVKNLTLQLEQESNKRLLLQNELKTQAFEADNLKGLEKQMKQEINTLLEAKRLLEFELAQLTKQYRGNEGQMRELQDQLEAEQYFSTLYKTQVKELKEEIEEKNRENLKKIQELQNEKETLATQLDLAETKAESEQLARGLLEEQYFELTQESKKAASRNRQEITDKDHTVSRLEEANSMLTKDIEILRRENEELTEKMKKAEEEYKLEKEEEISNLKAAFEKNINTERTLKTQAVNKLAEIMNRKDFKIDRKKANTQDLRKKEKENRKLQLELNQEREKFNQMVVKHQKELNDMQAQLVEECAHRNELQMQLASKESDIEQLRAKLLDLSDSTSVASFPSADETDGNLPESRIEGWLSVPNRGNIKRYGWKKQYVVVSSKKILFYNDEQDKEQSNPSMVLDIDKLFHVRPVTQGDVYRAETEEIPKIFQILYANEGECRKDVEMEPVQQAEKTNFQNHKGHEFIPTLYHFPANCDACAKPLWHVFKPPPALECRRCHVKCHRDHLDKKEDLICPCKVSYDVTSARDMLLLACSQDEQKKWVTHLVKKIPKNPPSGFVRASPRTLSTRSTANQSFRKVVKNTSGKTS
Chain of ROCK2 (O75116 whole entry): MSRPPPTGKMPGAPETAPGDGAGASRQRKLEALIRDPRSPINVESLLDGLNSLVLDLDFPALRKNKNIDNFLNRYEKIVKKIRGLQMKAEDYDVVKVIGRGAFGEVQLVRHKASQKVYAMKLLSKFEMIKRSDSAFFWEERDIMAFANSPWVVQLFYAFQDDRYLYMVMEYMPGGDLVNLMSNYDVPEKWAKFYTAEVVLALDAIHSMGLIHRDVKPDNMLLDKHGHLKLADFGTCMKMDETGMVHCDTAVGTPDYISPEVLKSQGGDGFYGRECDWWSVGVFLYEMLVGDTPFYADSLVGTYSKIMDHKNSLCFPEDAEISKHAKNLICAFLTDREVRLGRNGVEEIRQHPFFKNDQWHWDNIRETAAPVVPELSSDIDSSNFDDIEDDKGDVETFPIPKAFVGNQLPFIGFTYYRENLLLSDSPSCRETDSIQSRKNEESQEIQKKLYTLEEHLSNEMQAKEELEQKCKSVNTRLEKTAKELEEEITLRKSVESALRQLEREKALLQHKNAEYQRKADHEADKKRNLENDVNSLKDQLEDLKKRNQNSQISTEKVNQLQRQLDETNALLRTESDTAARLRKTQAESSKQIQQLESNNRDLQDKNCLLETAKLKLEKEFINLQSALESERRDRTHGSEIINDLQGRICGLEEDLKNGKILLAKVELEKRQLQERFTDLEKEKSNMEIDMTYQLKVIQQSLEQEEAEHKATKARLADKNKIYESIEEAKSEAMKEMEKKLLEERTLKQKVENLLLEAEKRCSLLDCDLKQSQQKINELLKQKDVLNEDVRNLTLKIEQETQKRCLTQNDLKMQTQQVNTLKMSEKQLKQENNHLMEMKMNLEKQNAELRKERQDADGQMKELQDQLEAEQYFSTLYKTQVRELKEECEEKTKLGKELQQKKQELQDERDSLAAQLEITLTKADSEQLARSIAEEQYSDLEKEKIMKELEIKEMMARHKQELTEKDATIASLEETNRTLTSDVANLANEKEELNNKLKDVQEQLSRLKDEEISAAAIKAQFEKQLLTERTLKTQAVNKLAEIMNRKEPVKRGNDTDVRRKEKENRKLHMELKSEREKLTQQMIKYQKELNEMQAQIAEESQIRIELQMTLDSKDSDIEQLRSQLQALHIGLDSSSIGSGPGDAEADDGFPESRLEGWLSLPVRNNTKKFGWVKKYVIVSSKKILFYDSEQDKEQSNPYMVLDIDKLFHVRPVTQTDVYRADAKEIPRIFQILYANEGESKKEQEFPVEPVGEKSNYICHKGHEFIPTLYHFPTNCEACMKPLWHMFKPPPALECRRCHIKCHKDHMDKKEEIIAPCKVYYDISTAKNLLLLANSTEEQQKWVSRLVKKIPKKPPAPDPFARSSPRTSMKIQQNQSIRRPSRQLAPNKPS
T3 sequence (P31645 whole entry): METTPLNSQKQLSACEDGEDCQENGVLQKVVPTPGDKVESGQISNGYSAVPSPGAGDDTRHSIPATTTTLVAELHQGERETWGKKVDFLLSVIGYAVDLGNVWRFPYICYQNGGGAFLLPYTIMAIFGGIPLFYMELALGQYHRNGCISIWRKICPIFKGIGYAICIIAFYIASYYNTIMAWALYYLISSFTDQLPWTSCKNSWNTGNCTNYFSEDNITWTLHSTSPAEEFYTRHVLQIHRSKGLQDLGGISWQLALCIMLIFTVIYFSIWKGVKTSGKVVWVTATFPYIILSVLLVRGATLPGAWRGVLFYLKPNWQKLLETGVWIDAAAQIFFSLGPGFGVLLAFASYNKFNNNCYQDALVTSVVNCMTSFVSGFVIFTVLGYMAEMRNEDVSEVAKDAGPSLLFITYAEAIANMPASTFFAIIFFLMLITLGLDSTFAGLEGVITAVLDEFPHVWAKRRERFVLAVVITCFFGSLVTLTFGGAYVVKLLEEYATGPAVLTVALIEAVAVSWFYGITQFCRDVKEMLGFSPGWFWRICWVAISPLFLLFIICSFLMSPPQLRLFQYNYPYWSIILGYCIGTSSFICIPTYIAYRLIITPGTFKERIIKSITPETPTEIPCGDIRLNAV
T2 sequence (P23975 whole entry): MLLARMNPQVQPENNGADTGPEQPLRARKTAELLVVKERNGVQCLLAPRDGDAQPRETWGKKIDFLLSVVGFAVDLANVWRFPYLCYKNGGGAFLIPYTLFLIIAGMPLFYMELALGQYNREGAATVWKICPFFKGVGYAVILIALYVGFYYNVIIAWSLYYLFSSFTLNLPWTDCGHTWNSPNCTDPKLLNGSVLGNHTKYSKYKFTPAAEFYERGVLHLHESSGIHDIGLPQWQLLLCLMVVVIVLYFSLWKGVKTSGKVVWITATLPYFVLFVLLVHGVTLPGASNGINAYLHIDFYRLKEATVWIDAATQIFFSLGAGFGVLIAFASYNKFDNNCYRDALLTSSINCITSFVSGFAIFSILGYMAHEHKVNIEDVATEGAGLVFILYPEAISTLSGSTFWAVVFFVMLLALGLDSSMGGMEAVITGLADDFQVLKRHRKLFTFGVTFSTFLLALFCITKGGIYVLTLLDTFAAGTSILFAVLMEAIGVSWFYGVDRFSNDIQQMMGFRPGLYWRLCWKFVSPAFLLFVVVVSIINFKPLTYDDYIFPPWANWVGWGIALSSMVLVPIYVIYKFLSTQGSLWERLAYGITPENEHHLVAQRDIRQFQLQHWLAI
Chain of Abl (P00519 whole entry): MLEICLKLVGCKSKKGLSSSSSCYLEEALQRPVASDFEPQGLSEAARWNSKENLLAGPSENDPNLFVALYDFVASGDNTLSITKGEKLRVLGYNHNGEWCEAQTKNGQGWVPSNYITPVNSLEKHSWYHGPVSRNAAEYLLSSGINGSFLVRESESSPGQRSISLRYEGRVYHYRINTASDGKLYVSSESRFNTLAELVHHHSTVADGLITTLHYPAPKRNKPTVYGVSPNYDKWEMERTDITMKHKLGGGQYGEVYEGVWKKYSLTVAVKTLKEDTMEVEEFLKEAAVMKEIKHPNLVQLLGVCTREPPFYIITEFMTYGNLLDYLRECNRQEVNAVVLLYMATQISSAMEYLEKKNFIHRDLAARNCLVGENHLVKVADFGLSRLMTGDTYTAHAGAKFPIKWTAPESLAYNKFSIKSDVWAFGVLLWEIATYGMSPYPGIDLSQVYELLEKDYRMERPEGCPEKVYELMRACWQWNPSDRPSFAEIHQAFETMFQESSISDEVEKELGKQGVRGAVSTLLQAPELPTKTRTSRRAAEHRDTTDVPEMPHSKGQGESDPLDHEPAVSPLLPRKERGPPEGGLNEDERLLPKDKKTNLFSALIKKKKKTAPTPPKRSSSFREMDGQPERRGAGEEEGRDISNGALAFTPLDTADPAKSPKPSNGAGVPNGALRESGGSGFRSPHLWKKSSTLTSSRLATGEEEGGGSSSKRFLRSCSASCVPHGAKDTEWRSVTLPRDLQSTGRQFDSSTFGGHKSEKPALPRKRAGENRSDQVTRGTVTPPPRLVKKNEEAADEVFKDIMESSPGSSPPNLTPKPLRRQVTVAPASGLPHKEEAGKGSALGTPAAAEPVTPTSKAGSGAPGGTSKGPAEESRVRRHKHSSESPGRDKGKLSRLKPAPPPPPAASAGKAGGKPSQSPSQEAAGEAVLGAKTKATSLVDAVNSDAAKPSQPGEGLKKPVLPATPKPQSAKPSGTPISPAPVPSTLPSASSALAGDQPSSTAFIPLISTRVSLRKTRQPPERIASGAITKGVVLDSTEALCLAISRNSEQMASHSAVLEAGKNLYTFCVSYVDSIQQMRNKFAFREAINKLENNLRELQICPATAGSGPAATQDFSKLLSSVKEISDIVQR

Take `C[C@H](N)C1CCN(S(=O)(=O)c2cccc3cnccc23)CC1` [BA-1076]: the IC50 (commonly the concentration that gives 50% inhibition) on ROCK1 [1] (ATP at Km, 70 μM, * = higher purity BA-1076) came to 19.6 µM. The “ROCK1/ROCK2 (fold difference)” value at ROCK2 is 55.5. The “ROCK1/ROCK2 (fold difference)” value on ROCK2 (listed as BA-1076*) was 60.8. Moreover, on ROCK1 [2], the IC50 is 10 µM. Besides, in series [3] (setting [7]), the “Aqueous Flare” value came to 0, the “Cellular Flare” value was 0, the “Conjunctival Congestion” value came out at 0 and the “Conjunctival Discharge” value worked out at 0. In series [3] (setting [7]), the “Conjunctival Swelling” value amounted to 0, the Cornea came out at 0, the “Iris Involvement” value is 0 and the Pannus was determined as 0. Further, in series [3] (setting [7]), the “Pupillary Response” value turned out to be 0 and the “Surface Area of Cornea Involvement” value worked out at 0. Also, the “Hyperemia / adverse ocular findings” value in series [3] (daily repeat topical dosing, 1%, three days) is reported as “did not cause hyperemia”. At Abl, the “Binding to Abl” value is given as “a second kinome screen did not confirm significant binding of BA-1076 to Abl”. The “Safety Screen % inhibition NET” value in series [4] is listed as “none”. Also, the “Safety Screen % inhibition SERT” value in series [5] is recorded as “none”. In series [6], the “Cell loss in substantia nigra” value was “prevent a significant percentage of the cell loss” and the “Motor function in behavioral testing” value is reported as “improved motor function”.

Compound `C[C@H](N)C1CCN(S(=O)(=O)c2cccc3c(=O)[nH]ccc23)CC1` [BA-2057] showed an IC50 at ROCK1 [1] of 23.6 µM. Also, at ROCK2, the IC50 stood at 0.491 µM and the “ROCK1/ROCK2 (fold difference)” value amounted to 48.0. Moreover, in series [4], the “Safety Screen % inhibition NET” value is given as “none”. In series [5], the “Safety Screen % inhibition SERT” value is on record as “none”. Besides, in series [6], the “Cell loss in substantia nigra” value was “prevent a significant percentage of the cell loss” and the “Motor function in behavioral testing” value is “improved motor function”.
